US9896441B2 (Lycera Corporation, priority 2014, dated 2018)

Legend:
Gal4-RORγ-LBD = target: T1, Gal4-RORγ-LBD (Homo sapiens, UniProt P51449); assay: Gal4-RORγ Luciferase Reporter Assay in HEK-293T Cells; type: cell-based; conditions: HEK-293 cells, luciferase reporter, with ursolic acid
T1 construct: expressed in transfected cells
T1 sequence (P51449 269-508 limits assumed): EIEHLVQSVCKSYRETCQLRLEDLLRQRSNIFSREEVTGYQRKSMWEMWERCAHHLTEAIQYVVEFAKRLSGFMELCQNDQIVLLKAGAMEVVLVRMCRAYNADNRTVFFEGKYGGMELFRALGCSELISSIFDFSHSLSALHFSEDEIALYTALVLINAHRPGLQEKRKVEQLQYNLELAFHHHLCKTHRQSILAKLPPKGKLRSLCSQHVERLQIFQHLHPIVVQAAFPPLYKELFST
Method in brief: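 HEK-293 cells were co-transfected with Gal4-RORγ-LBD and a Gal4-luciferase reporter, then exposed overnight at 37 °C to compounds with […] ursolic acid present (0.2% DMSO). Luminescence was read with One-Glo after 10 min at RT, untreated signal was set as 100, and Max Response was taken as the upper plateau of a 4-parameter logistic fit.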

RORγ-LBD = target: T2, RORγ-LBD (Homo sapiens, UniProt P51449); assay: RORγ-Ligand Binding Domain (LBD) TR-FRET Assay; type: biochemical; conditions: RORγ-LBD TR-FRET
T2 construct: made in house; host or cells: SF9 cells (baculovirus); used as diluted lysate
T2 sequence (P51449 269-508 limits assumed): T1 sequence (P51449 269-508 limits assumed)
Method in brief: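 His-tagged RORγ-LBD from SF9 baculovirus lysate, ~3 nM final, in 50 mM Tris pH 7.0, 50 mM KCl, 1 mM EDTA, 0.1 mM DTT, 0.01% BSA. Biotinylated SRC1 LXXLL peptide at 200 nM final with 2 μM ursolic acid; TR-FRET read-out, 1% DMSO final.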

For `CCOc1ncc(Cl)cc1S(=O)(=O)N1C[C@H](CCC(=O)OC)Oc2ccc(/C=C/c3c(F)cccc3Cl)cc21` [Example 89CW, methyl (S,E)-3-(4-((5-chloro-2-ethoxypyridin-3-yl)sulfonyl)-6-(2-chloro-6-fluorostyryl)-3,4-dihydro-2H-benzo[b][1,4]oxazin-2-yl)propanoate], the EC50 (Gal4-RORγ-LBD) was 500 to 5000 nM and the EC50 (RORγ-LBD) was less than 500 nM.
`CCOc1ncc(Cl)cc1S(=O)(=O)N1C[C@H](CCC(=O)O)Oc2ccc(/C=C/c3c(F)cccc3Cl)cc21` [Example 89CX, (S,E)-3-(4-((5-chloro-2-ethoxypyridin-3-yl)sulfonyl)-6-(2-chloro-6-fluorostyryl)-3,4-dihydro-2H-benzo[b][1,4]oxazin-2-yl)propanoic acid] was tested, and the EC50 (Gal4-RORγ-LBD) was 500 to 5000 nM and the EC50 (RORγ-LBD) was less than 500 nM.
`CCOc1ncc(Cl)cc1S(=O)(=O)N1C[C@H](CCC(=O)OC)Oc2ccc(/C=C/c3c(Cl)cccc3C(F)(F)F)cc21` [Example 89CY, methyl (S,E)-3-(4-((5-chloro-2-ethoxypyridin-3-yl)sulfonyl)-6-(2-chloro-6-(trifluoromethyl)-styryl)-3,4-dihydro-2H-benzo-[b][1,4]oxazin-2-yl)propanoate] showed an EC50 (Gal4-RORγ-LBD) of 500 to 5000 nM and an EC50 (RORγ-LBD) of less than 500 nM.
`CCOc1ncc(Cl)cc1S(=O)(=O)N1C[C@H](CCC(=O)O)Oc2ccc(/C=C/c3c(Cl)cccc3C(F)(F)F)cc21` [Example 89CZ, (S,E)-3-(4-((5-chloro-2-ethoxypyridin-3-yl)sulfonyl)-6-(2-chloro-6-(trifluoromethyl)-styryl)-3,4-dihydro-2H-benzo-[b][1,4]oxazin-2-yl)propanoic acid] showed an EC50 (Gal4-RORγ-LBD) of 500 to 5000 nM and an EC50 (RORγ-LBD) of less than 500 nM.
Work on `COC(=O)CC[C@H]1CN(S(=O)(=O)c2cccc(OC(F)F)c2)c2cc(/C=C/c3ccccn3)ccc2O1` [Example 89D, (S,E)-methyl 3-(4-((3-(difluoromethoxy)phenyl)sulfonyl)-6-(2-(pyridin-2-yl)vinyl)-3,4-dihydro-2H-benzo[b][1,4]oxazin-2-yl)propanoate] yielded an EC50 (Gal4-RORγ-LBD) of 500 to 5000 nM and an EC50 (RORγ-LBD) of less than 500 nM.
Work on `CCOc1nn(CC)cc1S(=O)(=O)N1C[C@H](CCC(=O)OC)Oc2ccc(/C=C/c3ccc(Cl)cc3)cc21` [Example 89DA, methyl (S,E)-3-(6-(4-chlorostyryl)-4-((3-ethoxy-1-ethyl-1H-pyrazol-4-yl)sulfonyl)-3,4-dihydro-2H-benzo[b][1,4]oxazin-2-yl)propanoate] yielded an EC50 (Gal4-RORγ-LBD) greater than 10000 nM and an EC50 (RORγ-LBD) greater than 10000 nM.
`CCOc1nn(CC)cc1S(=O)(=O)N1C[C@H](CCC(=O)O)Oc2ccc(/C=C/c3ccc(Cl)cc3)cc21` [Example 89DB, (S,E)-3-(6-(4-chlorostyryl)-4-((3-ethoxy-1-ethyl-1H-pyrazol-4-yl)sulfonyl)-3,4-dihydro-2H-benzo[b][1,4]oxazin-2-yl)propanoic acid] was tested, and the EC50 (Gal4-RORγ-LBD) was greater than 10000 nM and the EC50 (RORγ-LBD) was greater than 10000 nM.
`CCOc1nn(CC)cc1S(=O)(=O)N1C[C@H](CCC(=O)O)Oc2ccc(/C=C/c3ccc(C#N)cc3)cc21` [Example 89DC, (S,E)-3-(6-(4-cyanostyryl)-4-((3-ethoxy-1-ethyl-1H-pyrazol-4-yl)sulfonyl)-3,4-dihydro-2H-benzo[b][1,4]oxazin-2-yl)propanoic acid] gave an EC50 (Gal4-RORγ-LBD) greater than 10000 nM and an EC50 (RORγ-LBD) greater than 10000 nM.
Compound `COC(=O)CC[C@H]1CN(S(=O)(=O)c2cccc(C(F)(F)F)c2)c2cc(/C=C/c3ccccn3)ccc2O1` [Example 89DH, methyl (S,E)-3-(6-(2-(pyridin-2-yl)vinyl)-4-((3-(trifluoromethyl)phenyl)sulfonyl)-3,4-dihydro-2H-benzo[b][1,4]oxazin-2-yl)propanoate] has an EC50 (Gal4-RORγ-LBD) of 500 to 5000 nM and an EC50 (RORγ-LBD) of less than 500 nM.
`COC(=O)CC[C@H]1CN(S(=O)(=O)c2cccc(C(F)(F)F)c2)c2cc(/C=C/c3cccc(Cl)c3)ccc2O1` [Example 89DI, methyl (S,E)-3-(6-(3-chlorostyryl)-4-((3-(trifluoromethyl)phenyl)-sulfonyl)-3,4-dihydro-2H-benzo[b][1,4]oxazin-2-yl)propanoate] showed an EC50 (Gal4-RORγ-LBD) greater than 10000 nM and an EC50 (RORγ-LBD) of less than 500 nM.
Compound `CCOc1nn(CC)cc1S(=O)(=O)N1C[C@H](CCC(=O)OC)Oc2ccc(/C=C/c3ncccc3Cl)cc21` [Example 89DJ, methyl (S,E)-3-(6-(2-(3-chloropyridin-2-yl)vinyl)-4-((3-ethoxy-1-ethyl-1H-pyrazol-4-yl)sulfonyl)-3,4-dihydro-2H-benzo[b][1,4]oxazin-2-yl)propanoate] has an EC50 (Gal4-RORγ-LBD) of 500 to 5000 nM and an EC50 (RORγ-LBD) of less than 500 nM.
`COc1cccnc1/C=C/c1ccc2c(c1)N(S(=O)(=O)c1cccc(C(F)(F)F)c1)C[C@H](CCC(=O)O)O2` [Example 89DK, (S,E)-3-(6-(2-(3-methoxypyridin-2-yl)vinyl)-4-((3-(trifluoromethyl)phenyl)-sulfonyl)-3,4-dihydro-2H-benzo[b][1,4]oxazin-2-yl)propanoic acid] showed an EC50 (Gal4-RORγ-LBD) of 500 to 5000 nM and an EC50 (RORγ-LBD) of less than 500 nM.
Work on `N#Cc1cccnc1/C=C/c1ccc2c(c1)N(S(=O)(=O)c1cccc(C(F)(F)F)c1)C[C@H](CCC(=O)O)O2` [Example 89DL, (S,E)-3-(6-(2-(3-cyanopyridin-2-yl)vinyl)-4-((3-(trifluoromethyl)-phenyl)sulfonyl)-3,4-dihydro-2H-benzo[b][1,4]oxazin-2-yl)propanoic acid] yielded an EC50 (Gal4-RORγ-LBD) of 500 to 5000 nM and an EC50 (RORγ-LBD) of less than 500 nM.
Work on `CCOc1ncc(C(F)(F)F)cc1S(=O)(=O)N1C[C@H](CCC(=O)O)Oc2ccc(/C=C/c3c(Cl)cccc3C(F)(F)F)cc21` [Example 89DM, (S,E)-3-(6-(2-chloro-6-(trifluoromethyl)styryl)-4-((2-ethoxy-5-(trifluoromethyl)-pyridin-3-yl)sulfonyl)-3,4-dihydro-2H-benzo[b][1,4]-oxazin-2-yl)propanoic acid] yielded an EC50 (Gal4-RORγ-LBD) of less than 500 nM and an EC50 (RORγ-LBD) of less than 500 nM.
`CCOc1ncc(C(F)(F)F)cc1S(=O)(=O)N1C[C@H](CCC(=O)OC)Oc2ccc(/C=C/c3c(Cl)cccc3C(F)(F)F)cc21` [Example 89DN, methyl (S,E)-3-(6-(2-chloro-6-(trifluoromethyl)styryl)-4-((2-ethoxy-5-(trifluoromethyl)-pyridin-3-yl)sulfonyl)-3,4-dihydro-2H-benzo[b][1,4]-oxazin-2-yl)propanoate] showed an EC50 (Gal4-RORγ-LBD) of 500 to 5000 nM and an EC50 (RORγ-LBD) of less than 500 nM.
Compound `CCOc1nn(CC)cc1S(=O)(=O)N1C[C@H](CCC(=O)O)Oc2ccc(/C=C/c3c(Cl)cccc3C(F)(F)F)cc21` [Example 89DO, (S,E)-3-(6-(2-chloro-6-(trifluoromethyl)styryl)-4-((3-ethoxy-1-ethyl-1H-pyrazol-4-yl)sulfonyl)-3,4-dihydro-2H-benzo[b][1,4]oxazin-2-yl)propanoic acid] has an EC50 (Gal4-RORγ-LBD) of less than 500 nM and an EC50 (RORγ-LBD) of less than 500 nM.
`CCOc1nn(CC)cc1S(=O)(=O)N1C[C@H](CCC(=O)OC)Oc2ccc(/C=C/c3c(Cl)cccc3C(F)(F)F)cc21` [Example 89DP, methyl (S,E)-3-(6-(2-chloro-6-(trifluoromethyl)styryl)-4-((3-ethoxy-1-ethyl-1H-pyrazol-4-yl)sulfonyl)-3,4-dihydro-2H-benzo[b][1,4]oxazin-2-yl)propanoate] was tested, and the EC50 (Gal4-RORγ-LBD) was less than 500 nM and the EC50 (RORγ-LBD) was less than 500 nM.
In the case of `O=C(O)CC[C@H]1CN(S(=O)(=O)c2cccc(OC(F)F)c2)c2cc(/C=C/c3c(Cl)cccc3C(F)(F)F)ccc2O1` [Example 89DQ, (S,E)-3-(6-(2-chloro-6-(trifluoromethyl)styryl)-4-((3-(difluoromethoxy)phenyl)sulfonyl)-3,4-dihydro-2H-benzo[b][1,4]oxazin-2-yl)propanoic acid], the EC50 (Gal4-RORγ-LBD) is reported as less than 500 nM and the EC50 (RORγ-LBD) is reported as less than 500 nM.
